From patent publication US20250250241A1, “COMPOUND, PREPARATION AND USE THEREOF IN RUBBER BLENDS AND VEHICLE TIRES, AS AN ANTI-AGING AGENT, ANTIOXIDANT, ANTIOXIDANT AND/OR COLORING AGENT” (Continental Reifen Deutschland GmbH, priority 2022, published 2025)

Assay: Measurement of oxidation induction time (OIT) by DSC
Format: physicochemical
Settings: with liquid polyisoprene LIR-50, DSC; for Time until onset of oxidation (oxidation induction time) at 150° C.: isothermal 150° C., experiments terminated after 900 minutes; for Time until onset of oxidation (oxidation induction time) at 150° C. / Time until onset of oxidation (oxidation induction time) at 165° C.: O2 atmosphere; for Time until onset of oxidation (oxidation induction time) at 165° C.: isothermal 165° C.; for Time until onset of oxidation (oxidation induction time) at 180° C.: isothermal 180° C., O2 atmosphere 50 ml/min
Description: Measurement of Oxidation Induction Time (OIT)
The compound of formula III) was investigated under laboratory conditions for its potential protective effect as an aging stabilizer by measurement of the oxidation induction time.
To this end the compounds of formula III) and 6PPD, in each case together with a polymer (liquid synthetic polyisoprene (IR), LIR-50, Kuraray, weight average molecular weight distribution Mw=54 000 g/mol, glass transition temperature Tg=−63° C.), were heated at constant temperature at three different temperatures (180° C.; 165° C.; 150° C.) until onset of oxidation.
Heating to 180° C. was carried out as follows: • Starting temperature 35° C., heating to 170° C. at a heating rate of 20 K/min (kelvin per minute), heating to 180° C. at a heating rate of 1 K/min; purge gas: nitrogen (N2), volume flow 50 ml/min).
The specimen was kept under isothermal conditions at 180° C. under an N2 atmosphere for 5 minutes and the atmosphere was then switched to an O2 atmosphere (volume flow 50 ml/min).
The heating to 165° C. was carried out analogously by first heating to 155° C. at a heating rate of 20 K/min (kelvin per minute) and then heating to 165° C. at a heating rate of 1 K/min.
The heating to 150° C. was carried out analogously by first heating to 140° C. at a heating rate of 20 K/min (kelvin per minute) and then heating to 150° C. at a heating rate of 1 K/min.
Oxidation was determined over one peak using DSC (differential scanning calorimetry).
The time in minutes until oxidation was measured in each case.

| SMILES | Time until onset of oxidation (oxidation induction time) at 150° C. | Time until onset of oxidation (oxidation induction time) at 165° C. | Time until onset of oxidation (oxidation induction time) at 180° C. |
| --- | --- | --- | --- |
| CC(C)CC(C)Nc1ccc2c(c1)C(=O)Nc1ccccc1N2 (stereo not drawn) [Formula III), 2-(1,3-dimethylbutylamino)-5,10-dihydro-dibenzo[b,e][1,4]diazepin-11-one] | >900 min | 459 ± 10 min | 169 ± 10 min |
| CC(C)CC(C)Nc1ccc(Nc2ccccc2)cc1 (stereo not drawn) [Formula 6PPD, N-(1,3-dimethylbutyl)-N′-phenyl-p-phenylenediamine] | >900 min | 356 ± 10 min | 116 ± 10 min |
